Common to all, as to type: in vivo, mouse
In assay [1] the test system is DNA demethylase. The experiment in a line: DNA demethylase activity in aged mice. The following applies: 2 weeks treatment. As to the method:
(§1) Animal study protocols. This example was performed according to the guide lines of the National Institute of Health on the care and use of laboratory animals and approved by the institutional Animal Care and Use Committee of University of Oklahoma Health Science Center. AU mice were housed in cages at room temperature (2S±PC) and were provided with Purina laboratory chow No 5001) and tap Water and lithium. 6 adult mice (12 months) and 20 old mice (24-26 months) mice were next in this study. The old (aged) mice were randomly divided into three subgroups and each group had 6 or 7 mice. […] The third group received no treatment Blood pressure was measured before and after treatment with the active agent at 1 week and 2 week. Pulse wave velocity (PWV) was measured after 2 weeks treatment with active agent all animals were sacrificed and perfused transcardially with PBS under deep anesthesia (ketamine xylazine, 90/10 mg, IP). […]
Measurement of DNA Demethylase and DNA Methylation force Activity. The DNA demethylase and DNA methyltransferase activity was measured by using DNA demethylase activity qualification kit (Abeam˜Cambridge, MA) and methyltransferase coloritnetxic assay kit (Cayman Chemical Company, Ann Arbor, Michigan). […] The absorbance was read at […] for DNA methylene activity assay and 510 nm for DNA methyltransferase activity using BioTeck Multi-Mole Microplate Readers.

For assay [2], the system named is collagen-1. The experiment in a line: Collagen in aortas of aged mice (staining and western blot). How it is done:
as §1
Histological and Immunohistochemical Staining: Thoracic aortas were quickly excised and placed in cold (4′T) physiological saline solution. […] Aorta rings were post-fixed in 4% paraformaldehyde, embedded in paraffin and sectioned at […] thickness, Collagen was quantified by Masson' s trichrome staining as described previously. […] Blue-stained collagen areas were quantified with ImageJ (NIH, Bethesda, USA) film 4-5 regions per section. […]

The test system of assay [3] is eNOS. Briefly: Western blot of eNOS and p-eNOS, aortas of aged mice. How it is done:
Animal study protocols. This example was performed according to the guide lines of the National Institute of Health on the care and use of laboratory animals and approved by the institutional Animal Care and Use Committee of University of Oklahoma Health Science Center. AU mice were housed in cages at room temperature (2S±PC) and were provided with Purina laboratory chow No 5001) and tap Water and lithium. 6 adult mice (12 months) and 20 old mice (24-26 months) mice were next in this study. The old (aged) mice were randomly divided into three subgroups and each group had 6 or 7 mice. One subgroup received compound H (10 mg/kg/day1, IP, Enamine LLC, Monmouth Jct., NJ) and one group received an equal volume of DMSO (dimethyl sulfoxide, 5%) and served as a control. The third group received no treatment Blood pressure was measured before and after treatment with the active agent at 1 week and 2 week. Pulse wave velocity (PWV) was measured after 2 weeks treatment with active agent all animals were sacrificed and perfused transcardially with PBS under deep anesthesia (ketamine xylazine, 90/10 mg, IP). The aortas were then quickly removed, washed and cut into pieces for subsequent analyses.
Western Blot Analysis: Protein samples from the thoracic aorta were prepared in Lysis buffer as described previously. The proteins ([…] were resolved by SOS-PAGE and transferred to a nitrocellulose membrane (Bio-Rad). The membrane was then incubated overnight (4° C.) with a primary antibody against collagen-1-elastin. M1′v1P2; MMP9, ALP (Abeam1 1:1000), TGF-1, TGF˜N3 (Santa Cmz, 1:100). RUX2, or aNTulmliu (Cell Signaling. 1:1000). Goat autimouse or goat anti rabbit horseradish peroxidase (1:2000 . . . 1:5,000; Santa Cruz Biotechnology) was used as a secondary antibody find incubated for 1 hour at room temperature. Specific proteins were detected by chemiluminescent methods using Amersham™ western blotting detection reagents (GE Healthcare, UK). Protein abundance on western blots was quantified densitometry using Image lab software (Bio-Rad, Hercules, CA).
In general terms: Immunoblotting shows a protein as a band on a membrane.

SMILES strings stand for the structures.

As for `O=C(Nc1ccccc1Cl)c1c[nH]c2ccccc12` [active agent, N-(2-chlorophenyl)-Ul-indde-3-carboxamide], the DNA demethylase activity result in assay [1] is “increased”. Further, the Collagen production entry in assay [2] is “decreased”. Besides, in assay [3] (aortas of aged mice), the eNOS activity entry is on record as “increased”. In assay [3] (old mice, western blot), the eNOS expression result is “increased” and the p-eNOS expression result is on record as “increased”.

Values taken from US20240189278A1, “NOVEL COMPOUNDS AND METHODS FOR INCREASING KLOTHO GENE EXPRESSION” (Klotho Therapeutics, Inc., priority 2017, published 2024).
